Values after ≈ are worked out from the molar mass of the structure shown. Active and inactive are the calls of the source. No cut-off for these calls is given here.
Columns and labels:
Calliphoridae = assay: Pesticidal activity against blowfly; assay type: functional
[1] = test system: Diabrotica undecimpunctata; assay: Pesticidal activity against southern corn rootworm at 300 ppm; assay type: functional, organism-based; conditions: howardi
[2] = test system: Agrobacterium tumefaciens; assay: Antitumor activity against Agrobacterium tumefaciens-induced crown gall tumors in potato tuber by potato disk test; assay type: functional
MCF7 = assay: Cytotoxicity against human MCF7 cells; assay type: functional; conditions: read-out: ED50 (the source's name)
HT-29 = assay: Cytotoxicity against human HT-29 cells; assay type: functional; conditions: read-out: ED50 (the source's name)
Tetranychus urticae = assay: Pesticidal activity against two spotted spider mite at 400 ppm; assay type: functional
A549 = assay: Cytotoxicity against human A549 cells; assay type: functional; conditions: read-out: ED50 (the source's name)
Culicidae = assay: Pesticidal activity against mosquito larvae at 10 ppm; assay type: functional
Spodoptera eridania = assay: Pesticidal activity against southern armyworm at 5000 ppm; assay type: functional, organism-based
Artemia = assay: Toxicity against brine shrimp; assay type: organism-based; conditions: in vivo
Haemonchus contortus = assay: Nematicidal activity against Haemonchus contortus; assay type: functional
Aphis gossypii [3] = assay: Pesticidal activity against melon aphid at 10 ppm; assay type: functional
Aphis gossypii [4] = assay: Pesticidal activity against melon aphid at 400 ppm; assay type: functional

Compound	Activity (Calliphoridae)	Activity [1]	inhibition (INH) [2]	EC50 (MCF7)	EC50 (HT-29)	Activity (Tetranychus urticae)	EC50 (A549)	Activity (Culicidae)	Activity (Spodoptera eridania)	LC50 (Artemia)	Activity (Haemonchus contortus)	Activity (Aphis gossypii [3])	Activity (Aphis gossypii [4])
C=CCCCCCCCCC/C=C1\CC(CO)OC1=O (centres undefined) [MAJORENOLIDE]	1%	inactive	86%	2.58 µg/mL (≈ 9.2 µM)	2.61 µg/mL (≈ 9.31 µM)	0%	1.7 µg/mL (≈ 6.06 µM)	20%	inactive	0.36 ppm	0.1%	80%	
C#CCCCCCCCCC/C=C1\CC(CO)OC1=O (centres undefined) [MAJORYNOLIDE]	1%	inactive	46%	9.56 µg/mL (≈ 34.3 µM)	13.8 µg/mL (≈ 49.6 µM)	0%	4.64 µg/mL (≈ 16.7 µM)	0%	inactive	0.89 ppm	0.1%		0%

Source: ChEMBL document CHEMBL1150176, “Majorenolide and majorynolide: a new pair of cytotoxic and pesticidal alkene-alkyne delta-lactones from Persea major” (J Nat Prod, 1989)
